From publication PMC7702303, “Biochemical and transcript level differences between the three human phosphofructokinases show optimisation of each isoform for specific metabolic niches” (Biochemical Journal, 2020)
Read-outs that look alike come from different tables or passages of the source. One block for each compound: values may come before it.

How the values were obtained:
recombinant human PFK-P = biological target: T1, recombinant human PFK-P (Homo sapiens, UniProt Q01813); assay: ALDO-TIM-G3PDH enzyme-linked kinetic assay, PFK-P; assay type: biochemical; conditions: for K0.5F6P + modulator / VmaxF6P + modulator: ATP 0.5mM; for K0.5F6P + modulator / VmaxF6P + modulator / K0.5ATP + modulator / VmaxATP + modulator: N=3, mean (SD); for K0.5ATP + modulator / VmaxATP + modulator: F6P 4mM
T1 construct: made in house; host or cells: PFK-deficient Saccharomyces cerevisiae
T1 sequence (Q01813 1-784): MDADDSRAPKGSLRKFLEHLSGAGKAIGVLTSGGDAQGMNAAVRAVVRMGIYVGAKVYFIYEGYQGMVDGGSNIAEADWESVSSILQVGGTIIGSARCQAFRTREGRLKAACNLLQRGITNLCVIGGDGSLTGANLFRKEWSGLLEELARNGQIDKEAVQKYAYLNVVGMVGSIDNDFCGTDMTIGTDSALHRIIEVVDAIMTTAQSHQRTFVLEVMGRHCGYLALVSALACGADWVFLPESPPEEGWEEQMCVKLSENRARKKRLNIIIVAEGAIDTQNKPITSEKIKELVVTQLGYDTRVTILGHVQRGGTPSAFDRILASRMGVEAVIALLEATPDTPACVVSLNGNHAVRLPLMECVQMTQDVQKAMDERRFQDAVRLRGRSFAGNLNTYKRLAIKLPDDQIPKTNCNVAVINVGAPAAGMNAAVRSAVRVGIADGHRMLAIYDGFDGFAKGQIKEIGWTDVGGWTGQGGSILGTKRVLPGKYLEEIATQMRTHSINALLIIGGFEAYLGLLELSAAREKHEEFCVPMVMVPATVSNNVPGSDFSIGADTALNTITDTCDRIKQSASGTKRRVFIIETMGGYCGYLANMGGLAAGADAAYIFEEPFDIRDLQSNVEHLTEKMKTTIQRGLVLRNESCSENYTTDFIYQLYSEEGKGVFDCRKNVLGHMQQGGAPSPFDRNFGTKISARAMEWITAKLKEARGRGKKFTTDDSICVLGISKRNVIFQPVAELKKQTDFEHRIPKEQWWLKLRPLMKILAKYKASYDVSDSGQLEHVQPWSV
Method: (§1) Recombinant human PFKs were expressed in PFK-deficient Saccharomyces cerevisiae and purified using the methods described previously, adapting earlier materials and protocols. Production of PFK intended for use in ATP titration experiments used 1 mM F6P as a tetramer stabilising agent in protein purification and storage buffers. Production of PFK intended for use in F6P titration experiments used 1 mM ATP as a tetramer stabilising agent in protein purification and storage buffers. Experimental details on the purification and characterisation procedures including figures showing SDS–PAGE gels of the highly pure PFKs used in the kinetic experiments described in this work have been recently published.
(§2) Assay buffer consisted of 50 mM TEA, 100 mM KCl, 10 mM MgCl2, 1 mM Tris(2-carboxyethyl)phosphine hydrochloride (TCEP), 10% glycerol, pH 7.4. Assay mix consisted of 5 units/ml glycerol-3-phosphate dehydrogenase (G3PDH, Sigma–Aldrich G6880), 2.5 units/ml aldolase (Sigma–Aldrich A2714), 25 units/ml triosephosphate isomerase (TIM, Sigma–Aldrich T6258), and 1.25 mM NADH. ATP and F6P were obtained from Sigma–Aldrich (A2383 and F3627, respectively). For ATP titrations, 38 µl of buffer or ligand were added to a clear non-binding 96-well plate. 40 µl of assay mix containing 10 mM F6P (final concentration 4 mM) was added and the plate was incubated at 25°C for 5 min. An amount of 2 µl of PFK isoforms were added to each well from stock concentrations of 150 µg/ml and the reaction was immediately started with 20 µl of ATP at varying concentrations. For F6P titrations, 30 µl of buffer or ligand was added to a clear non-binding 96-well plate. An amount of 40 µl of assay mix containing 1.25 mM ATP (final concentration 0.5 mM) was added and the plate was incubated at 25°C for 5 min. An amount of 5 µl of PFK isoforms were added to each well from stock concentrations of 200 µg/ml and the reaction was immediately started with 20 µl F6P at varying concentrations. All ligands and substrates (including ATP) were used at pH 7.4. All metabolites were obtained from Sigma–Aldrich unless otherwise stated. […] A SpectraMax M5 Multi-Mode Microplate Reader was used to measure A340nm at 13 s intervals for 10 min. All experiments were performed in triplicate unless otherwise stated.
(§3) Time-dependent absorbance change was converted into rate of NADH oxidation (µM s^−1) or specific activity (µmol min^−1 mg protein^−1) using the Beer-Lambert law (molar extinction coefficient of NADH 6.22 mM^−1 cm^−1). The initial rate of reaction was used to avoid accumulation of ADP, which activates PFK, interfering with the determination of kinetic properties. Non-linear regression analysis was performed on substrate titration data using GraphPad Prism 7, with curves fitted using allosteric sigmoidal models, enabling determination of steady-state kinetic values.

recombinant human PFK-L = biological target: T2, recombinant human PFK-L (Homo sapiens, UniProt P17858); assay: ALDO-TIM-G3PDH enzyme-linked kinetic assay, PFK-L; assay type: biochemical; conditions: for K0.5F6P + modulator / VmaxF6P + modulator: ATP 0.5mM; for K0.5F6P + modulator / VmaxF6P + modulator / K0.5ATP + modulator / VmaxATP + modulator: N=3, mean (SD); for K0.5ATP + modulator / VmaxATP + modulator: F6P 4mM
T2 construct: made in house; host or cells: PFK-deficient Saccharomyces cerevisiae
T2 sequence (P17858 1-780): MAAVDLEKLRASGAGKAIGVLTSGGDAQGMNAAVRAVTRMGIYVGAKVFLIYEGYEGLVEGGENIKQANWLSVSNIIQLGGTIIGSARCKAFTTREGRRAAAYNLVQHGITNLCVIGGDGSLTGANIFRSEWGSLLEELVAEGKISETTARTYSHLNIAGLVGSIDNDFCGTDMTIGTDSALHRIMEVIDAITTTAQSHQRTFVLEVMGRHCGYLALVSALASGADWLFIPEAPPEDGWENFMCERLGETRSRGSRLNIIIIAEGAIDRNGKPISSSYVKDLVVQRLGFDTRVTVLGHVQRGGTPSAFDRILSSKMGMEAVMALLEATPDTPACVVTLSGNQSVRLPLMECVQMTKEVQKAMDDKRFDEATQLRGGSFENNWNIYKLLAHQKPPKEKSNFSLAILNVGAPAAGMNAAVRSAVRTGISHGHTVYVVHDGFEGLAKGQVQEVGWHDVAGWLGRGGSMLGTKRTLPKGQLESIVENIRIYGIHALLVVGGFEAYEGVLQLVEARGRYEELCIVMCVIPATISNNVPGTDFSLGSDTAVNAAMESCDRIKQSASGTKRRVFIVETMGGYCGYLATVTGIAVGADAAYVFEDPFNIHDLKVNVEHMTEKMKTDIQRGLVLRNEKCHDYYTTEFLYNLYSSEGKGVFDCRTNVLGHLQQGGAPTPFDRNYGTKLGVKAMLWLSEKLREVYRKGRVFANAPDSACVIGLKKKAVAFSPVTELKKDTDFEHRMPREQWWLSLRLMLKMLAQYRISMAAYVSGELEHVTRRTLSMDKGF
Method: as §1, §2, §3

PFK = system: PFK; parameters: key to Effect (activator or inhibitor of PFK): “+” indicates activator; “-“ indicates inhibitor; conditions: cited from earlier work; for IC50: asterisk not explained, read-out: IC50 or AC50 (inhibitor); for IC50 / IC50 or AC50 (activator): ref Moreno-Sanchez et al., 2012; for Effect (activator or inhibitor of PFK): published literature, ref selected references in Supplementary Table 1; for IC50 or AC50 (activator): unit inferred
[1] = second of three values marked *

IC50 (recombinant human PFK-P; dose-response, read-out: IC50^citrate): 177 ± 132 µM
change in kcat^ATP/K0.5^ATP compared with control PFK without modulator (recombinant human PFK-P; modulator 600 µM): +136%
change in kcat^F6P/K0.5^F6P compared with control PFK without modulator (recombinant human PFK-P; modulator 600 µM): −78%
K0.5F6P + modulator (recombinant human PFK-P; modulator 600 µM): 1494 (627) M
VmaxF6P + modulator (recombinant human PFK-P; modulator 600 µM): 0.43 (0.12) moles/min/mg
K0.5ATP + modulator (recombinant human PFK-P; modulator 600 µM): 46.0 (14.4) M
VmaxATP + modulator (recombinant human PFK-P; modulator 600 µM): 10.18 (0.89) moles/min/mg
IC50^citrate (recombinant human PFK-L; PFK-L, dose-response): no clear relationship
change in kcat^ATP/K0.5^ATP compared with control PFK without modulator (recombinant human PFK-L; PFK-L, modulator 600 µM): +28%
change in kcat^F6P/K0.5^F6P compared with control PFK without modulator (recombinant human PFK-L; PFK-L, modulator 600 µM): +2%
K0.5F6P + modulator (recombinant human PFK-L; PFK-L, modulator 600 µM): 2471 (244) M
VmaxF6P + modulator (recombinant human PFK-L; PFK-L, modulator 600 µM): 6.52 (0.71) moles/min/mg
K0.5ATP + modulator (recombinant human PFK-L; PFK-L, modulator 600 µM): 108.4 (9.5) M
VmaxATP + modulator (recombinant human PFK-L; PFK-L, modulator 600 µM): 36.14 (1.12) moles/min/mg
SMILES: O=C(O)CC(O)(CC(=O)O)C(=O)O [Citrate]
IC50 (PFK; first of three values marked *): 5900 µM
Effect (activator or inhibitor of PFK) (PFK): -
IC50 (PFK; [1]): 490 µM
IC50 (PFK; third of three values marked *): 6700 µM

effect on PFK activity, in words (recombinant human PFK-P): strongly activated
allosteric constant K0.5^ATP+F26BP/K0.5^ATP (recombinant human PFK-P; ATP titration): 0.54
AC50 (recombinant human PFK-P; activation, read-out: AC50^F26BP): 9.13 µM
change in kcat^ATP/K0.5^ATP compared with control PFK without modulator (recombinant human PFK-P; modulator 10 µM): +88%
change in kcat^F6P/K0.5^F6P compared with control PFK without modulator (recombinant human PFK-P; modulator 10 µM): +111%
K0.5F6P + modulator (recombinant human PFK-P; modulator 10 µM): 2143 (132) M
VmaxF6P + modulator (recombinant human PFK-P; modulator 10 µM): 2.45 (0.18) moles/min/mg
K0.5ATP + modulator (recombinant human PFK-P; modulator 10 µM): 176.8 (33.8) M
VmaxATP + modulator (recombinant human PFK-P; modulator 10 µM): 31.26 (1.96) moles/min/mg
effect on PFK activity, in words (recombinant human PFK-L; PFK-L): strongly activated
decrease in AC50^F26BP for PFK-L compared with PFK-P (recombinant human PFK-L; PFK-L vs PFK-P): > 50 fold
allosteric constant K0.5^ATP+F26BP/K0.5^ATP (recombinant human PFK-L; PFK-L, ATP titration): 0.92
AC50 (recombinant human PFK-L; PFK-L, activation, read-out: AC50^F26BP): 0.17 µM
change in kcat^ATP/K0.5^ATP compared with control PFK without modulator (recombinant human PFK-L; PFK-L, modulator 10 µM): +6.5%
change in kcat^F6P/K0.5^F6P compared with control PFK without modulator (recombinant human PFK-L; PFK-L, modulator 10 µM): +148%
K0.5F6P + modulator (recombinant human PFK-L; PFK-L, modulator 10 µM): 698 (105) M
VmaxF6P + modulator (recombinant human PFK-L; PFK-L, modulator 10 µM): 5.07 (0.41) moles/min/mg
K0.5ATP + modulator (recombinant human PFK-L; PFK-L, modulator 10 µM): 139.4 (12.3) M
VmaxATP + modulator (recombinant human PFK-L; PFK-L, modulator 10 µM): 38.57 (1.23) moles/min/mg
SMILES: O=P(O)(O)OC[C@H]1O[C@@](CO)(OP(=O)(O)O)[C@@H](O)[C@@H]1O [F26BP, fructose 2,6-bisphosphate]
IC50 or AC50 (activator) (PFK; first of three values marked *): 0.53 µM
Effect (activator or inhibitor of PFK) (PFK): +
IC50 or AC50 (activator) (PFK; [1]): 4.6 µM
IC50 or AC50 (activator) (PFK; third of three values marked *): 0.58 µM

change in kcat^ATP/K0.5^ATP compared with control PFK without modulator (recombinant human PFK-P; modulator 1100 µM): −40%
change in kcat^F6P/K0.5^F6P compared with control PFK without modulator (recombinant human PFK-P; modulator 1100 µM): +9%
K0.5F6P + modulator (recombinant human PFK-P; modulator 1100 µM): 1378 (96) M
VmaxF6P + modulator (recombinant human PFK-P; modulator 1100 µM): 0.81 (0.04) moles/min/mg
K0.5ATP + modulator (recombinant human PFK-P; modulator 1100 µM): 352.3 (133.2) M
VmaxATP + modulator (recombinant human PFK-P; modulator 1100 µM): 23.07 (2.40) moles/min/mg
change in kcat^ATP/K0.5^ATP compared with control PFK without modulator (recombinant human PFK-L; PFK-L, modulator 1100 µM): +1%
change in kcat^F6P/K0.5^F6P compared with control PFK without modulator (recombinant human PFK-L; PFK-L, modulator 1100 µM): +92%
K0.5F6P + modulator (recombinant human PFK-L; PFK-L, modulator 1100 µM): 952.8 (137.7) M
VmaxF6P + modulator (recombinant human PFK-L; PFK-L, modulator 1100 µM): 5.36 (0.49) moles/min/mg
K0.5ATP + modulator (recombinant human PFK-L; PFK-L, modulator 1100 µM): 148.7 (18.6) M
VmaxATP + modulator (recombinant human PFK-L; PFK-L, modulator 1100 µM): 34.91 (1.59) moles/min/mg
SMILES: C=C(OP(=O)(O)O)C(=O)O [PEP, phosphoenolpyruvate]
Effect (activator or inhibitor of PFK) (PFK): -
